Assay results published in patent US5045302A, “Ligands and cationic complexes thereof with technetium-99m” (priority 1988, dated 1991).
Read-outs that look alike come from different tables or passages of the source. Blank lines part the entries; values can stand above or below the molecule they belong to.

Columns and labels:
[1] = guinea pig, in vivo
[2] = Plasma binding study (PD10 column), human plasma; assay type: in vitro ADME; conditions: for percent recovery of Tc99m activity: human, plasma; for binding to / interaction with human plasma: in words
Protocol: (§1) 1 ml sample of guinea pig or human plasma or saline (control) were added to 2 ml Eppendorf tubes. To these were then added 100 ul aliquots of the ^99m Tc preparation being studied. Mixing was performed by inverting the tubes several times. A 50 ul sample was then taken for counting and the remainder of the sample (1050 ul) was quantitatively transferred to the top of the PD10 column. The sample was allowed to enter the column matrix and then washed in with 1.5 mls saline. Initially a 2.5 ml aliquot was collected for counting, (dead volume) subsequently 0.5 ml aliquots were collected until a total volume of 16 mls had been used to elute the column. […] Collected fractions were counted in a γ well counter and a graph plotted of percentage recovery was calculated from initial preloading sample and cumulative counts.

[3] = rat, in vivo
[4] = Heart uptake and urinary output, statement in words; conditions: species not stated
[5] = Rat biodistribution of Tc-99m complexes
[6] = Hydrophilicity, statement in words; assay type: physicochemical; conditions: compared with complex TcL2O2+ (L=P53), as indicated by urinary output
[7] = Protein binding, statement in words; assay type: in vitro ADME
[8] = Guinea pig biodistribution of Tc-99m complexes; conditions: 60 min p.i.
[9] = in vivo
[10] = guinea pig, serum
Protocol: as §1

[11] = saline
Protocol: as §1

SMILES: CCOCC[P+]1(CCOCC)CC[P+](CCOCC)(CCOCC)[Tc-3]12([Cl])([Cl])[P+](CCOCC)(CCOCC)CC[P+]2(CCOCC)CCOCC
blood and liver clearance [1]: good
heart uptake [1]: good heart uptake
wash-out from heart [1]: washes out of the respective hearts
Blood ([1]; 2 min): 3.50 % Injected dose/organ
Heart ([1]; 2 min): 1.89 % Injected dose/organ
Heart/Blood Counts/Gram Ratio ([1]; 2 min): 12.72
Heart/Liver Counts/Gram Ratio ([1]; 2 min): 2.13
Heart/Muscle Counts/Gram Ratio ([1]; 2 min): 4.48
Kidney + Urine ([1]; 2 min): 6.98 % Injected dose/organ
Liver ([1]; 2 min): 13.74 % Injected dose/organ
Liver + GI ([1]; 2 min): 18.72 % Injected dose/organ
Lung ([1]; 2 min): 3.11 % Injected dose/organ
Muscle ([1]; 2 min): 61.65 % Injected dose/organ
Blood ([1]; 60 min): 0.58 % Injected dose/organ
Heart ([1]; 60 min): 0.13 % Injected dose/organ
Heart/Blood Counts/Gram Ratio ([1]; 60 min): 5.35
Heart/Liver Counts/Gram Ratio ([1]; 60 min): 0.72
Heart/Muscle Counts/Gram Ratio ([1]; 60 min): 1.13
Kidney + Urine ([1]; 60 min): 3.20 % Injected dose/organ
Liver ([1]; 60 min): 3.16 % Injected dose/organ
Liver + GI ([1]; 60 min): 62.38 % Injected dose/organ
Lung ([1]; 60 min): 0.30 % Injected dose/organ
Muscle ([1]; 60 min): 15.16 % Injected dose/organ
percent recovery of Tc99m activity [2]: 93.8%
binding to / interaction with human plasma [2]: possible slight interaction
blood and liver clearance [3]: good
heart uptake [3]: good heart uptake
wash-out from heart [3]: washes out of the respective hearts
Blood ([3]; 2 min): 5.24 % Injected dose/organ
Heart ([3]; 2 min): 1.51 % Injected dose/organ
Heart/Blood Counts/Gram Ratio ([3]; 2 min): 3.90
Heart/Liver Counts/Gram Ratio ([3]; 2 min): 0.64
Heart/Muscle Counts/Gram Ratio ([3]; 2 min): 4.68
Kidney + Urine ([3]; 2 min): 4.48 % Injected dose/organ
Liver ([3]; 2 min): 28.87 % Injected dose/organ
Liver + GI ([3]; 2 min): 41.13 % Injected dose/organ
Lung ([3]; 2 min): 1.45 % Injected dose/organ
Muscle ([3]; 2 min): 34.92 % Injected dose/organ
Blood ([3]; 60 min): 0.71 % Injected dose/organ
Heart ([3]; 60 min): 0.16 % Injected dose/organ
Heart/Blood Counts/Gram Ratio ([3]; 60 min): 3.09
Heart/Liver Counts/Gram Ratio ([3]; 60 min): 0.46
Heart/Muscle Counts/Gram Ratio ([3]; 60 min): 1.41
Kidney + Urine ([3]; 60 min): 4.95 % Injected dose/organ
Liver ([3]; 60 min): 4.78 % Injected dose/organ
Liver + GI ([3]; 60 min): 61.34 % Injected dose/organ
Lung ([3]; 60 min): 0.47 % Injected dose/organ
Muscle ([3]; 60 min): 11.68 % Injected dose/organ

SMILES: C1COC(CP(CCCP(CC2CCCO2)CC2CCCO2)CC2CCCO2)C1 (centres unmarked) [Compound 35]
Blood ([5]; 2 min p.i.): 10.5 % Injected dose/organ
Heart ([5]; 2 min p.i.): 0.59 % Injected dose/organ
Heart/Blood Counts/Gram Ratio ([5]; 2 min p.i.): 0.88
Heart/Liver Counts/Gram Ratio ([5]; 2 min p.i.): 0.28
Liver ([5]; 2 min p.i.): 28.2 % Injected dose/organ
Blood ([5]; 60 min p.i.): 1.44 % Injected dose/organ
Heart ([5]; 60 min p.i.): 0.32 % Injected dose/organ
Heart/Blood Counts/Gram Ratio ([5]; 60 min p.i.): 3.8
Heart/Liver Counts/Gram Ratio ([5]; 60 min p.i.): 0.46
Liver ([5]; 60 min p.i.): 10.7 % Injected dose/organ

SMILES: CCOCC[P+]1(CCOCC)CC[P+](CCOCC)(CCOCC)[Tc-3]12(=[O])(=[O])[P+](CCOCC)(CCOCC)CC[P+]2(CCOCC)CCOCC [[TcO2 (P53)2]^+]
protein binding [7]: low protein binding
Heart/Lung Counts/Gram Ratio [8]: 2.0
Blood ([1]; 2 min): 3.11 % Injected dose/organ
Heart ([1]; 2 min): 1.33 % Injected dose/organ
Heart/Blood Counts/Gram Ratio ([1]; 2 min): 10.9
Heart/Liver Counts/Gram Ratio ([1]; 2 min): 1.90
Heart/Lung Counts/Gram Ratio ([1]; 2 min): 1.2
Heart/Muscle Counts/Gram Ratio ([1]; 2 min): 6.12
Kidney + Urine ([1]; 2 min): 16.7 % Injected dose/organ
Liver ([1]; 2 min): 11.6 % Injected dose/organ
Liver + GI ([1]; 2 min): 38.7 % Injected dose/organ
Lung ([1]; 2 min): 1.14 % Injected dose/organ
Muscle ([1]; 2 min): 30.0 % Injected dose/organ
Blood ([1]; 60 min): 0.41 % Injected dose/organ
Heart ([1]; 60 min): 0.99 % Injected dose/organ
Heart/Blood Counts/Gram Ratio ([1]; 60 min): 61.9
Heart/Liver Counts/Gram Ratio ([1]; 60 min): 7.51
Heart/Muscle Counts/Gram Ratio ([1]; 60 min): 4.10
Kidney + Urine ([1]; 60 min): 16.1 % Injected dose/organ
Liver ([1]; 60 min): 2.13 % Injected dose/organ
Liver + GI ([1]; 60 min): 44.6 % Injected dose/organ
Lung ([1]; 60 min): 0.47 % Injected dose/organ
Muscle ([1]; 60 min): 43.4 % Injected dose/organ
Heart/Blood Counts/Gram Ratio ([5]; 2 min p.i.): 10.5
Heart/Liver Counts/Gram Ratio ([5]; 2 min p.i.): 1.52
Heart/Lung Counts/Gram Ratio ([5]; 2 min p.i.): 2.0
Liver ([5]; 60 min p.i.): 1.62 % Injected dose/organ
percent recovery of Tc99m activity [2]: 65.23%
binding to / interaction with human plasma [2]: no significant binding
heart uptake [9]: good heart uptake
percent recovery of Tc99m activity [10]: 90.34%
percent recovery of Tc99m activity [11]: 90.82%
Blood ([3]; 2 min): 2.25 % Injected dose/organ
Brian ([3]; 2 min): 0.03 % Injected dose/organ
Heart ([3]; 2 min): 1.66 % Injected dose/organ
Heart/Muscle Counts/Gram Ratio ([3]; 2 min): 5.94
Kidney + Urine ([3]; 2 min): 13.2 % Injected dose/organ
Liver ([3]; 2 min): 14.1 % Injected dose/organ
Liver + GI ([3]; 2 min): 37.8 % Injected dose/organ
Lung ([3]; 2 min): 1.44 % Injected dose/organ
Muscle ([3]; 2 min): 31.6 % Injected dose/organ
Blood ([3]; 60 min): 0.28 % Injected dose/organ
Brian ([3]; 60 min): 0.02 % Injected dose/organ
Heart ([3]; 60 min): 1.68 % Injected dose/organ
Heart/Blood Counts/Gram Ratio ([3]; 60 min): 86.4
Heart/Liver Counts/Gram Ratio ([3]; 60 min): 14.4
Heart/Lung Counts/Gram Ratio ([3]; 60 min): 4.3
Heart/Muscle Counts/Gram Ratio ([3]; 60 min): 5.74
Kidney + Urine ([3]; 60 min): 9.29 % Injected dose/organ
Liver + GI ([3]; 60 min): 42.5 % Injected dose/organ
Lung ([3]; 60 min): 0.65 % Injected dose/organ
Muscle ([3]; 60 min): 31.6 % Injected dose/organ

Further lines, results first:

heart uptake [4]: low heart uptake
urinary output [4]: high urinary output
Blood ([5]; 2 min p.i.): 18.8 % Injected dose/organ
Heart ([5]; 2 min p.i.): 0.44 % Injected dose/organ
Heart/Blood Counts/Gram Ratio ([5]; 2 min p.i.): 0.35
Heart/Liver Counts/Gram Ratio ([5]; 2 min p.i.): 1.71
Liver ([5]; 2 min p.i.): 3.62 % Injected dose/organ
Blood ([5]; 60 min p.i.): 0.77 % Injected dose/organ
Heart ([5]; 60 min p.i.): 0.09 % Injected dose/organ
Heart/Blood Counts/Gram Ratio ([5]; 60 min p.i.): 1.82
Heart/Liver Counts/Gram Ratio ([5]; 60 min p.i.): 0.88
Liver ([5]; 60 min p.i.): 1.35 % Injected dose/organ
hydrophilicity [6]: substantially higher hydrophilicity
SMILES: COCCCP(CCCOC)CCP(CCCOC)CCCOC [Compound 3]

Blood ([5]; 2 min p.i.): 10.8 % Injected dose/organ
Heart ([5]; 2 min p.i.): 1.05 % Injected dose/organ
Heart/Blood Counts/Gram Ratio ([5]; 2 min p.i.): 1.45
Heart/Liver Counts/Gram Ratio ([5]; 2 min p.i.): 0.73
Liver ([5]; 2 min p.i.): 18.8 % Injected dose/organ
Blood ([5]; 60 min p.i.): 2.18 % Injected dose/organ
Heart ([5]; 60 min p.i.): 0.73 % Injected dose/organ
Heart/Blood Counts/Gram Ratio ([5]; 60 min p.i.): 5.69
Heart/Liver Counts/Gram Ratio ([5]; 60 min p.i.): 1.62
Liver ([5]; 60 min p.i.): 6.64 % Injected dose/organ
SMILES: CCOCCP(CCOCC)CC(CP(CCOCC)CCOCC)OC [Compound 36]

Blood ([5]; 2 min p.i.): 12.4 % Injected dose/organ
Heart ([5]; 2 min p.i.): 0.82 % Injected dose/organ
Heart/Blood Counts/Gram Ratio ([5]; 2 min p.i.): 0.99
Heart/Liver Counts/Gram Ratio ([5]; 2 min p.i.): 0.35
Liver ([5]; 2 min p.i.): 29.7 % Injected dose/organ
Blood ([5]; 60 min p.i.): 3.25 % Injected dose/organ
Heart ([5]; 60 min p.i.): 0.54 % Injected dose/organ
Heart/Blood Counts/Gram Ratio ([5]; 60 min p.i.): 2.62
Heart/Liver Counts/Gram Ratio ([5]; 60 min p.i.): 0.63
Liver ([5]; 60 min p.i.): 12.0 % Injected dose/organ
SMILES: CCOCCP(CCOCC)c1ccccc1P(CCOCC)CCOCC [Compound 37]
